In patent US20070203242A1, “Method for treating gastric reflux” (priority 2006, published 2007):

Assays:
[1] = tested on: patients with gastric reflux / heartburn; assay: Patient reports of relief of gastric reflux / heartburn after oral L-arginine compositions; assay type: in vivo, human; details: for relief of gastric reflux due to stress: one patient
Excerpt: A patient having ulcerations in the upper small intestine who routinely took omeprazole or lansoprazole complained of heartburn on laying down.

small bowel ulcers = details: rats; yeast RNA together with L-arginine; cited from earlier work
[2] = tested on: indomethacin induced gastric lesions; details: dose 15.6 mg/kg; cited from earlier work
[3] = tested on: aspirin induced gastric lesions; details: dose 62.5 mg/kg; cited from earlier work

| SMILES | relief of gastric reflux due to stress ([1]; L-arginine 1 gram dose) | L-arginine required for complete control of the gastric reflux ([1]; daily, severely afflicted patient) [g] | time to complete cessation of all symptoms ([1]; one patient with reflux due to stress, L-arginine 1 gram dose) | decrease in ulcer number (small bowel ulcers) [%] | prevention of indomethacin induced gastric lesions [2] | prevention of aspirin induced gastric lesions [3] |
| --- | --- | --- | --- | --- | --- | --- |
| O=C([O-])[O-].[Ca+2] [calcium carbonate antacids, calcium carbonate, reference compound] | no relief |  |  |  |  |  |
| N=C(N)NCCC[C@H](N)C(=O)O [L-arginine] | immediate relief | 1 to 4 | complete cessation of all symptoms within one minute | 34 |  |  |
| NC(=O)CC[C@H](N)C(=O)O [Glutamine, L-glutamine] |  |  |  |  | ineffective | completely ineffective |
